Assay results published in ChEMBL document CHEMBL1157874, “Synthesis, spectroscopic and biological studies on the new symmetric Schiff base derived from 2,6-diformyl-4-methylphenol with N-aminopyrimidine” (2010).
Values after ≈ are worked out from the molar mass of the structure shown.

Tests used:
Format in all cases: functional
[1] = tested on: Staphylococcus aureus; assay: Antibacterial activity against Staphylococcus aureus ATCC 6538 after 18 hrs by broth microdilution assay; details: ATCC 6538, 18 h
[2] = tested on: Staphylococcus aureus; assay: Antibacterial activity against Staphylococcus aureus ATCC 25923 after 18 hrs by broth microdilution assay; details: ATCC 25923, 18 h
[3] = tested on: Escherichia coli; assay: Antibacterial activity against Escherichia coli ATCC 4230 after 18 hrs by broth microdilution assay; details: ATCC 4230, 18 h
[4] = tested on: Micrococcus luteus; assay: Antibacterial activity against Micrococcus luteus ATCC 9345 after 18 hrs by broth microdilution assay; details: ATCC 9345, 18 h
[5] = tested on: Candida albicans; assay: Antifungal activity against Candida albicans ATCC 14053 after 18 hrs by broth microdilution assay; details: ATCC 14053, 18 h
[6] = tested on: Candida parapsilosis; assay: Antifungal activity against Candida parapsilosis ATCC 22019 after 18 hrs by broth microdilution assay; details: Lodderomyces parapsilosis, ATCC 22019, 18 h
[7] = tested on: Pichia kudriavzevii; assay: Antifungal activity against Candida krusei ATCC 6258 after 18 hrs by broth microdilution assay; details: ATCC 6258, 18 h
[8] = tested on: Bacillus cereus; assay: Antibacterial activity against Bacillus cereus ATCC 7064 after 18 hrs by broth microdilution assay; details: ATCC 7064, 18 h

SMILES | MIC [1] | MIC [2] | MIC [3] | MIC [4] | MIC [5] | MIC [6] | MIC [7] | MIC [8]
Cc1cc(/C=N/n2cc(C(=O)c3ccccc3)c(-c3ccccc3)nc2=O)c(O)c(/C=N/n2cc(C(=O)c3ccccc3)c(-c3ccccc3)nc2=O)c1 | 20 µg/mL (≈ 28.1 µM) | 20 µg/mL (≈ 28.1 µM) | 40 µg/mL (≈ 56.3 µM) | 20 µg/mL (≈ 28.1 µM) | 40 µg/mL (≈ 56.3 µM) | 40 µg/mL (≈ 56.3 µM) | 40 µg/mL (≈ 56.3 µM) | 80 µg/mL (≈ 113 µM)
OC(Cn1cncn1)(Cn1cncn1)c1ccc(F)cc1F [FLUCONAZOLE] |  |  |  |  |  |  | 10 µg/mL (≈ 32.7 µM) | 
CC1(C)S[C@@H]2[C@H](NC(=O)[C@H](N)c3ccccc3)C(=O)N2[C@H]1C(=O)O [AMPICILLIN] |  |  |  | 10 µg/mL (≈ 28.6 µM) |  |  |  | 5 µg/mL (≈ 14.3 µM)
